Data on four molecules can be found in patent US7951920B2, “Conjugate of an antibody against CCR5 and an antifusogenic peptide” (Roche Palo Alto LLC, priority 2006, dated 2011).

Test [1] has as its system pseudotyped NL-Bal viruses. The class given is cell-based, HIV. To be noted: pseudotyped NL-Bal virus, JC53-BL cells, 3 day incubation, inhibition of luciferase activity. How it is done:
For the production of pseudotyped NL-Bal viruses, plasmid pNL4-3Δenv (HIV pNL4-3 genomic construct with a deletion within the env gene) and pcDNA3.1/NL-BAL env [pcDNA3.1 plasmid containing NL-Bal env gene (obtained from NIBSC Centralized Facility for AIDS Reagents)] were co-transfected into the HEK 293FT cell line (Invitrogen), cultured in Dulbecco's modified […] (DMEM) containing 10% fetal calf serum (FCS), 100 U/mL Penicillin, 100 μg/mL Streptomycin, 2 mM L-glutamine and 0.5 mg/mL geniticin (all media from Invitrogen/Gibco). The supernatants containing pseudotyped viruses were harvested two days following transfection, and cellular debris was removed by filtration through a 0.45 μm pore size PES (polyethersulfone) filter (Nalgene) and stored at −80° C. in aliquots. For normalization in assay performance, virus stock aliquots were used to infect JC53-BL (US NIH Aids Reagent Program) cells yielding approximately 1.5×10^5 RLU (relative light units) per well. Test antifusogenic peptide-anti-CCR5 antibody conjugates, reference antibodies and reference antifusogenic peptides (T-20, T-1249, T-651 and T-2635) were serially diluted in 96-well plates. The assay was carried out in quadruplicates. Each plate contained cell control and virus control wells. The equivalent of 1.5×10^5 RLU of virus stocks were added to each well, then 2.5×10^4 JC53-BL cells were added to each well, with a final assay volume of 200 μl per well. After 3 day incubation at 37° C., 90% Relative Humidity, and 5% CO2, media were aspirated and 50 μl of Steady-Glo® Luciferase Assay System (Promega) was added to each well. The assay plates were read on a Luminometer (Luminoskan, Thermo Electron Corporation) after 10 minutes of incubation at room temperature. Percent inhibition of luciferase activity was calculated for each dose point after subtracting the background, and IC50 and IC90-values were determined by using XLfit curve fitting software for Excel (version 3.0.5 Build12; […]).

Test [2] deals with CCR5 mutant K171A or E172A. Kind of test: Epitope binding by alanine scanning (epitope mapping). The note with it: 100% epitope binding is defined for wild-type CCR5. Details: species or system human. From the text:
Epitope binding is investigated by using alanine scanning according to the method described by W. C. Olson et al. (J. Virol. (1999) 73:4145-55) for epitope mapping. […] Epitope binding for antibody C is found to be 20% for CCR5 mutant K171A or E172A (glu 172 is mutated to ala). 100% epitope binding is defined for wild-type CCR5. A further preferred anti-CCR5 antibody binds to the same epitope as antibody C binds.

The test system of the next test is HIV. Kind of test: HIV assays. The class given is cell-based. The note with it: comparison with antibody 2D7.

Regarding `CC[C@H](C)[C@H](NC(=O)[C@H](CCC(N)=O)NC(=O)[C@H](C)NC(=O)[C@H](CCC(N)=O)NC(=O)[C@H](CCC(=O)O)NC(=O)[C@H](CC(C)C)NC(=O)[C@H](CC(C)C)NC(=O)[C@H](C)NC(=O)[C@@H](NC(=O)[C@@H](NC(=O)[C@H](CCCCN)NC(=O)[C@H](CCC(N)=O)NC(=O)[C@H](CCC(=O)O)NC(=O)[C@H](Cc1c[nH]c2ccccc12)NC(=O)[C@H](CCC(=O)O)NC(=O)[C@H](CCC(N)=O)NC(=O)[C@H](Cc1c[nH]c2ccccc12)NC(C)=O)[C@@H](C)CC)[C@@H](C)O)C(=O)N[C@@H](CCC(N)=O)C(=O)N[C@@H](CCC(N)=O)C(=O)N[C@@H](CCC(=O)O)C(=O)N[C@@H](CCCCN)C(=O)N[C@@H](CC(N)=O)C(=O)N[C@@H](CCC(=O)O)C(=O)N[C@@H](Cc1ccc(O)cc1)C(=O)N[C@@H](CCC(=O)O)C(=O)N[C@@H](CC(C)C)C(=O)N[C@@H](CCC(N)=O)C(=O)N[C@@H](CCCCN)C(=O)N[C@@H](CC(C)C)C(=O)N[C@@H](CC(=O)O)C(=O)N[C@@H](CCCCN)C(=O)N[C@@H](Cc1c[nH]c2ccccc12)C(=O)N[C@@H](C)C(=O)N[C@@H](CO)C(=O)N[C@@H](CC(C)C)C(=O)N[C@@H](Cc1c[nH]c2ccccc12)C(=O)N[C@@H](CCC(=O)O)C(=O)N[C@@H](Cc1c[nH]c2ccccc12)C(=O)N[C@@H](Cc1ccccc1)C(N)=O` [T-1249], in test [1], the “Antiviral activity IC50” value was 11 ng/mL and the “Antiviral activity IC90” value is on record as 90 ng/mL.

With `CC[C@H](C)[C@H](NC(=O)[C@H](C)NC(=O)[C@H](CCCNC(=N)N)NC(=O)[C@H](CC(=O)O)NC(=O)[C@H](Cc1c[nH]c2ccccc12)NC(=O)[C@H](C)NC(=O)[C@H](CCC(=O)O)NC(=O)[C@H](Cc1c[nH]c2ccccc12)NC(=O)[C@@H](NC(=O)[C@@H](NC(C)=O)[C@@H](C)O)[C@@H](C)O)C(=O)N[C@@H](C)C(=O)N[C@@H](CCC(=O)O)C(=O)N[C@@H](Cc1ccc(O)cc1)C(=O)N[C@@H](C)C(=O)N[C@@H](C)C(=O)N[C@@H](CCCNC(=N)N)C(=O)N[C@H](C(=O)N[C@@H](CCC(=O)O)C(=O)N[C@@H](C)C(=O)N[C@@H](CC(C)C)C(=O)N[C@H](C(=O)N[C@@H](CCCNC(=N)N)C(=O)N[C@@H](C)C(=O)N[C@@H](C)C(=O)N[C@@H](CCC(N)=O)C(=O)N[C@@H](CCC(=O)O)C(=O)N[C@@H](CCC(N)=O)C(=O)N[C@@H](CCC(N)=O)C(=O)N[C@@H](CCC(=O)O)C(=O)N[C@@H](CCCCN)C(=O)N[C@@H](CC(N)=O)C(=O)N[C@@H](CCC(=O)O)C(=O)N[C@@H](C)C(=O)N[C@@H](C)C(=O)N[C@@H](CC(C)C)C(=O)N[C@@H](CCCNC(=N)N)C(=O)N[C@@H](CCC(=O)O)C(=O)N[C@@H](CC(C)C)C(N)=O)[C@@H](C)CC)[C@@H](C)CC` [T-2635], in test [1], the “Antiviral activity IC50” value came to 14 ng/mL and the “Antiviral activity IC90” value is listed as 161 ng/mL.

In the case of enfuvirtide, in test [1], the “Antiviral activity IC50” value was 206 ng/mL and the “Antiviral activity IC90” value is given as 3955 ng/mL.

B1: Antibody C: anti-CCR5 antibody, variable domains SEQ ID NO:5, 6 (antibody, V domains shown)
VH: QVQLKQSGPGLVRPSQSLSITCTVSGFPLGIFGVHWVRQSPGKGLEWLGVIWKGGNTDYNAAFMSRLRITKDNSKSQVFFRMNSLQTDDTAIYYCAKVNLADAMDYWGQGTSVIVSS
VL: DIQMTQSPASLSASVGETVTITCRASGNIHGYLAWFQQKQGKSPQLLVYNTKTLAEGVPSRFSGSGSGTQFSLKINSLQPEDFGNYYCQHHYDLPRTFGGGTKLEIKR
modifications: mouse
Molecule B1 returned an Epitope binding in test [2] of 20%. Further, in the test with HIV, the “IC50 values compared with antibody 2D7” value was “lower IC50 values than antibody 2D7”.
